{"source": "ChEMBL document CHEMBL1201862", "about": "“PubChem BioAssay data set” (2004)", "key": {"[1]": {"biological_target": "Glyceraldehyde-3-phosphate dehydrogenase (Homo sapiens, UniProt P04406)", "sequence (P04406 whole entry)": "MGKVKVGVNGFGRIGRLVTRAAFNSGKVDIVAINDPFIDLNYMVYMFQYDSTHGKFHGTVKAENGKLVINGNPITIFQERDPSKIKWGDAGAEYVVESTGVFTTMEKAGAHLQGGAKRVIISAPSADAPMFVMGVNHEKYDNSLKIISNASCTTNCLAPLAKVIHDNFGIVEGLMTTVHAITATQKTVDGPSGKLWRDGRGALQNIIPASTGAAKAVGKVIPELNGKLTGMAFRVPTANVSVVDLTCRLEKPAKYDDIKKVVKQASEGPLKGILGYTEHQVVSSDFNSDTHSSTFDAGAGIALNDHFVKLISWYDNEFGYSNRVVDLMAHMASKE"}, "[2]": {"biological_target": "T1, Alkaline phosphatase, tissue-nonspecific isozyme (Homo sapiens, UniProt P05186)", "T1 sequence (P05186 whole entry)": "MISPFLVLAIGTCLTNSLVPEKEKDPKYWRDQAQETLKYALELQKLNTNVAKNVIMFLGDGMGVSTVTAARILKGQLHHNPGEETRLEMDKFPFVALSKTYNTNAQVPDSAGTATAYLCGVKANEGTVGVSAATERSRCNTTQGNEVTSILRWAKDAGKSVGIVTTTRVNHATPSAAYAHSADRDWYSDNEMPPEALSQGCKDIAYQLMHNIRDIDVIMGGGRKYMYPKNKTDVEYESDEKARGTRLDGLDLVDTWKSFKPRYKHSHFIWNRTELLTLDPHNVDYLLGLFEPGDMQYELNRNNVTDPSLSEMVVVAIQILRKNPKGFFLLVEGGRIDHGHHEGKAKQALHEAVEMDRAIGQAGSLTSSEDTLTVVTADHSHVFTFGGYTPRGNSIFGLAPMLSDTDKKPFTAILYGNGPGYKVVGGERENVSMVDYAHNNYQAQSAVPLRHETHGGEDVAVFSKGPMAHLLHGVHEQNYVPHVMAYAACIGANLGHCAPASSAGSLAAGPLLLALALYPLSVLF", "assay": "human TNAP enzyme inhibitors, SAR follow-up, biochemical, luminescent, dose response (AID 1056)"}, "[3]": {"biological_target": "Peroxisome proliferator-activated receptor gamma/Nuclear receptor coactivator 1 (Homo sapiens, UniProt P37231)", "sequence (P37231 whole entry)": "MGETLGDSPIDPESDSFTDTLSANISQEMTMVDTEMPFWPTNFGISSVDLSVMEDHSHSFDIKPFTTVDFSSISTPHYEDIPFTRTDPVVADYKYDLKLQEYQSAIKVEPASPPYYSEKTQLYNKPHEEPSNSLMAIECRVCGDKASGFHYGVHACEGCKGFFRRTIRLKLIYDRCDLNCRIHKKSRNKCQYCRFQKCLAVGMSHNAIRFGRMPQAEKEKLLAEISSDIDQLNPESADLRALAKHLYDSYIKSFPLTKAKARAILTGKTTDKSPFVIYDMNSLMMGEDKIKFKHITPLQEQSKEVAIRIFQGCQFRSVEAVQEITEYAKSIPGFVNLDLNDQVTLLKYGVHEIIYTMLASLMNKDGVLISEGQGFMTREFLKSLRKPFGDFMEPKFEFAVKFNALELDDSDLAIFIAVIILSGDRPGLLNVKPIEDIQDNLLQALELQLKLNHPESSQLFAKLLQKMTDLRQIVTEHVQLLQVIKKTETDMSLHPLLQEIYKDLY", "sequence (Q15788 whole entry, further chain)": "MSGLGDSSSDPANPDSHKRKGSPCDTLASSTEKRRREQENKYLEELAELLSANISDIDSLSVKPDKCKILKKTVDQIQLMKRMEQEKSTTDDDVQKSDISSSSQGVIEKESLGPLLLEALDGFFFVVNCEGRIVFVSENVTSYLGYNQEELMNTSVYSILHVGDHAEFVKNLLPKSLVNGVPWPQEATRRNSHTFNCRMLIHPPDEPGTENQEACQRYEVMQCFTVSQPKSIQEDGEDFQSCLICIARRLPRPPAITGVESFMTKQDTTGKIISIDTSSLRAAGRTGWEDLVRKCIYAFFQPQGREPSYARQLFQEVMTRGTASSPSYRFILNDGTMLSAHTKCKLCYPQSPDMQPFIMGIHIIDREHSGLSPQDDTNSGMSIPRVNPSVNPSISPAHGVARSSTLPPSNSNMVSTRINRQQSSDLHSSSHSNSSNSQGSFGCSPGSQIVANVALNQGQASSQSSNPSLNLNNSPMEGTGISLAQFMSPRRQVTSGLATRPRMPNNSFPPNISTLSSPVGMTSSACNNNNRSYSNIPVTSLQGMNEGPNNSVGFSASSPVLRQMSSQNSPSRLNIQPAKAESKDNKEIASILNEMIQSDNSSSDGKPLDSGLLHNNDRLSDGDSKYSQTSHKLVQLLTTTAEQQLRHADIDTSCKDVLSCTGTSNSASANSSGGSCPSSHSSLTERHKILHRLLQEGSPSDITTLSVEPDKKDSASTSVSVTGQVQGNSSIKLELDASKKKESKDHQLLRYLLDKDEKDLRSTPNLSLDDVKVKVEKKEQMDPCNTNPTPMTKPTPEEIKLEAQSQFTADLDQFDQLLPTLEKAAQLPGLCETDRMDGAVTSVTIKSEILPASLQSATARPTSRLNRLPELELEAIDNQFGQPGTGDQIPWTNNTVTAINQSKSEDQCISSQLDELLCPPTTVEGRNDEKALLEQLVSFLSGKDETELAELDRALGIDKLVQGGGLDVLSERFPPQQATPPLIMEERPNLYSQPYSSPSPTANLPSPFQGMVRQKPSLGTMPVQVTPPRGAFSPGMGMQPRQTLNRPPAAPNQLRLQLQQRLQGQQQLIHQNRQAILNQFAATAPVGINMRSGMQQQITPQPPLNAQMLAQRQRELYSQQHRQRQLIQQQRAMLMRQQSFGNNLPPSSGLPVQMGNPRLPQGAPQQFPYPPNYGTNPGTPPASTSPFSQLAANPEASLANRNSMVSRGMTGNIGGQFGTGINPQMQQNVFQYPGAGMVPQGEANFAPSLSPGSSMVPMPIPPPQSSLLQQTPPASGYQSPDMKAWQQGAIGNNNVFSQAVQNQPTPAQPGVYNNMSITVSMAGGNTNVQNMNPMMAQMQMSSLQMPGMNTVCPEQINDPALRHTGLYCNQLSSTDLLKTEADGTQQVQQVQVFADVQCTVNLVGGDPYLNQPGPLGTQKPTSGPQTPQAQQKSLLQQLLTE", "assay": "(§1) TR-FRET dose response biochemical High Throughput Screening assay for agonists of the steroid receptor coactivator 1 (SRC-1) recruitment by the peroxisome proliferator-activated receptor gamma (PPAR gamma): non-selective agonists. [Related pubchem assays (depositor defined):AID1300, AID1808, AID504735, AID631]", "type": "protein assay"}, "[4]": {"biological_target": "Peroxisome proliferator-activated receptor gamma/Nuclear receptor coactivator 3 (Homo sapiens, UniProt P37231)", "assay": "as §1, with “3 (SRC-3)” for “1 (SRC-1)”, “assays: 1301 (Confirmation screen.), 1048 (Primary screen.)]” for “assays (depositor defined):AID1300, AID1808, AID504735, AID631]”", "type": "functional"}, "[5]": {"biological_target": "Peroxisome proliferator-activated receptor gamma/Nuclear receptor coactivator 2 (Homo sapiens, UniProt P37231)", "sequence (P37231 whole entry)": "as the sequence (P37231 whole entry) above", "sequence (Q15596 whole entry, further chain)": "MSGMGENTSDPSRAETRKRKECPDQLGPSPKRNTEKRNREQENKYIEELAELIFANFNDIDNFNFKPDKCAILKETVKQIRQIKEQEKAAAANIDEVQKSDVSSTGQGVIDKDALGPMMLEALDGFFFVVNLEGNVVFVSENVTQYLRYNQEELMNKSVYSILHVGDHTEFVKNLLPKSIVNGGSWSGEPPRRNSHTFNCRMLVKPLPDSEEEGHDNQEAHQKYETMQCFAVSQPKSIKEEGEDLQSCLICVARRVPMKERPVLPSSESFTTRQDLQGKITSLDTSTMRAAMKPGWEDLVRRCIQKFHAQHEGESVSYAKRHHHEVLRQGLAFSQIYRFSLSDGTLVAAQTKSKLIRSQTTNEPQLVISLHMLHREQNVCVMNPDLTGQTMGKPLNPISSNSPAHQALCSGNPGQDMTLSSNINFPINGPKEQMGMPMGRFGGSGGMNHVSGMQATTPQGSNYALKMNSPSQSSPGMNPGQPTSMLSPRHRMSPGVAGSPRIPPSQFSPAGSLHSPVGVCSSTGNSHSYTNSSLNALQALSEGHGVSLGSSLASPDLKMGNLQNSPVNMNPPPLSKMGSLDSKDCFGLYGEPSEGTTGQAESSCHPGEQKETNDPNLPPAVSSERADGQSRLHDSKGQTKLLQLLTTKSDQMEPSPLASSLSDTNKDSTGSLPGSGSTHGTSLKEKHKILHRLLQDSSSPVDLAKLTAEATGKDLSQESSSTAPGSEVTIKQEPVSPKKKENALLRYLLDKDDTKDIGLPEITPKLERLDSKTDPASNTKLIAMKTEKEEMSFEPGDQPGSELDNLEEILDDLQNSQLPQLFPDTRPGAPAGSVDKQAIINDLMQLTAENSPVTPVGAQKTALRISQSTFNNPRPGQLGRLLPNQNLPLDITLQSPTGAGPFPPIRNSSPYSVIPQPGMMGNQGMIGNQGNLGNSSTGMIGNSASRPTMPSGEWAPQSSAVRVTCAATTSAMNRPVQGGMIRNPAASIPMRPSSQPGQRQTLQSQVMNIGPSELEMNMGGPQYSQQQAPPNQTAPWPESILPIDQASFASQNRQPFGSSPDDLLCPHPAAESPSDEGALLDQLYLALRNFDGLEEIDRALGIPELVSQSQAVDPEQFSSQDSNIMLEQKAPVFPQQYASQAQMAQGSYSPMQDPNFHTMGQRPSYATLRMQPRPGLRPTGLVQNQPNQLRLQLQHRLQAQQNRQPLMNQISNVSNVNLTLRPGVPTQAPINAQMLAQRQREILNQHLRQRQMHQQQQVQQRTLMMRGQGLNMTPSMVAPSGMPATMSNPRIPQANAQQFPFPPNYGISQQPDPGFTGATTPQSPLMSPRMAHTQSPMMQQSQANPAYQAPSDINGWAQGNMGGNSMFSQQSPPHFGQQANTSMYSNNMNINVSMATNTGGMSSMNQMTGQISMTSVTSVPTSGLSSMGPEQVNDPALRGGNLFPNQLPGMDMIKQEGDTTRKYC", "assay": "TR-FRET dose response biochemical High Throughput Screening assay for agonists of the steroid receptor coactivator 2 (SRC-2) recruitment by the peroxisome proliferator-activated receptor gamma (PPAR gamma): non-selective agonists. [Related pubchem assays: 1297, 1032 ]", "type": "functional"}, "[6]": {"biological_target": "DNA dC->dU-editing enzyme APOBEC-3A (Homo sapiens, UniProt P31941)", "assay": "APOBEC3A DNA deaminase inhibitors, dose response, biochemical (AID 504722)", "type": "functional"}, "[7]": {"biological_target": "DNA dC->dU-editing enzyme APOBEC-3G (Homo sapiens, UniProt Q9HC16)", "assay": "Dose Response confirmation of small molecule APOBEC3G DNA Deaminase Inhibitors via a fluorescence-based single-stranded DNA deaminase assay. [Related pubchem assays (depositor defined):AID493012, AID493028]", "type": "functional"}, "[8]": {"biological_target": "T2, Polyadenylate-binding protein 1 (Homo sapiens, UniProt P11940)", "T2 sequence (P11940 whole entry)": "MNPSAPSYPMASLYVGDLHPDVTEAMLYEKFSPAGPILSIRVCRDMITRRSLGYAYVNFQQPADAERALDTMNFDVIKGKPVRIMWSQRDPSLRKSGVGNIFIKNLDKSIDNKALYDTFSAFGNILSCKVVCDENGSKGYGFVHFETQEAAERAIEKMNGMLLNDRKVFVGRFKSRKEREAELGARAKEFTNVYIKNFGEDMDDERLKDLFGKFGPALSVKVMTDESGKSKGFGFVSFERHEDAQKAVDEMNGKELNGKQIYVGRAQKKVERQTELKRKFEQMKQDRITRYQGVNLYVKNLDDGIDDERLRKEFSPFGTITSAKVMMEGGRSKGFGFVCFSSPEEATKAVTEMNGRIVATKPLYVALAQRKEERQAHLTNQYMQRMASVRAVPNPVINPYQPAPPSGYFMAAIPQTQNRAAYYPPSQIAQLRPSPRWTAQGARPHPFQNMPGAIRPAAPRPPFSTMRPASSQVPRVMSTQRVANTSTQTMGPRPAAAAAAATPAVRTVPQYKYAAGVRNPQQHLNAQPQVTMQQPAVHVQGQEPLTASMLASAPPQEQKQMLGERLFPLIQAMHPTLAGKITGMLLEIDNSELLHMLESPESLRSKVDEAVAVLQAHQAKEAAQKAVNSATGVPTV", "assay": "PABP1 MLLE–PAM2 interaction inhibitors, dose response, miRNA deadenylation inhibitor project, biochemical, fluorescence polarization, Cy5-PAM2 peptide, secondary (AID 602260)", "type": "functional", "settings": "read-out: IC50_Mean"}, "[9]": {"biological_target": "T2, Polyadenylate-binding protein 1", "assay": "PABP1 MLLE–PAM2 binding inhibitor potency, dose response, biochemical, fluorescence polarization, FITC-PAM2 peptide (AID 602259)", "type": "functional", "settings": "read-out: IC50_Mean"}, "[10]": {"biological_target": "T3, Adenosylmethionine-8-amino-7-oxononanoate aminotransferase (Mycobacterium tuberculosis, UniProt P9WQ81)", "T3 sequence (P9WQ81 whole entry)": "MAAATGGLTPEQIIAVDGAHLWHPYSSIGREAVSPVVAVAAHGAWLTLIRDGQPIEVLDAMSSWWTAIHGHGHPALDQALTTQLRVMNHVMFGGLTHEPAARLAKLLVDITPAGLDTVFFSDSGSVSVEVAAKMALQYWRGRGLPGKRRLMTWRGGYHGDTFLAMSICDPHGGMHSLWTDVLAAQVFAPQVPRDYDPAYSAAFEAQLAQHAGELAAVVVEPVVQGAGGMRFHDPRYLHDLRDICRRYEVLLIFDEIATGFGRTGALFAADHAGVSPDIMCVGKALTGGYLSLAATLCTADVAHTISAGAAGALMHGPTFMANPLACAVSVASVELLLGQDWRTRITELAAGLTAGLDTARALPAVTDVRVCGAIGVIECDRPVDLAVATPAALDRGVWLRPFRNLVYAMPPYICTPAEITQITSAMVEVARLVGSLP", "assay": "Mycobacterium tuberculosis BioA enzyme inhibitor Measured in Biochemical System Using Plate Reader - 2163-02_Inhibitor_Dose_CherryPick_Activity.", "type": "functional, Mycobacterium tuberculosis UT205"}, "[11]": {"biological_target": "DNA (cytosine-5)-methyltransferase 1 (Homo sapiens, UniProt P26358)", "assay": "DNMT1 methyltransferase inhibitors, confirmation, biochemical, fluorescent molecular beacon (AID 602386)", "type": "functional"}, "[12]": {"biological_target": "T4, Ubiquitin-conjugating enzyme E2 N (Homo sapiens, UniProt P61088)", "T4 sequence (P61088 whole entry)": "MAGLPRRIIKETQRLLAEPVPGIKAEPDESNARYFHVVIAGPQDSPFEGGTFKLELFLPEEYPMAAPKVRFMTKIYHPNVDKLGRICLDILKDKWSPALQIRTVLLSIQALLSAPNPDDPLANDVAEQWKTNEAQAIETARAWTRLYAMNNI", "type": "functional"}, "[13]": {"biological_target": "Major prion protein (Homo sapiens, UniProt P04156)", "type": "functional, cell-based"}, "[14]": {"assay": "cells"}, "[15]": {"biological_target": "T5, Short transient receptor potential channel 4 (Mus musculus, UniProt Q9QUQ5)", "T5 sequence (Q9QUQ5 whole entry)": "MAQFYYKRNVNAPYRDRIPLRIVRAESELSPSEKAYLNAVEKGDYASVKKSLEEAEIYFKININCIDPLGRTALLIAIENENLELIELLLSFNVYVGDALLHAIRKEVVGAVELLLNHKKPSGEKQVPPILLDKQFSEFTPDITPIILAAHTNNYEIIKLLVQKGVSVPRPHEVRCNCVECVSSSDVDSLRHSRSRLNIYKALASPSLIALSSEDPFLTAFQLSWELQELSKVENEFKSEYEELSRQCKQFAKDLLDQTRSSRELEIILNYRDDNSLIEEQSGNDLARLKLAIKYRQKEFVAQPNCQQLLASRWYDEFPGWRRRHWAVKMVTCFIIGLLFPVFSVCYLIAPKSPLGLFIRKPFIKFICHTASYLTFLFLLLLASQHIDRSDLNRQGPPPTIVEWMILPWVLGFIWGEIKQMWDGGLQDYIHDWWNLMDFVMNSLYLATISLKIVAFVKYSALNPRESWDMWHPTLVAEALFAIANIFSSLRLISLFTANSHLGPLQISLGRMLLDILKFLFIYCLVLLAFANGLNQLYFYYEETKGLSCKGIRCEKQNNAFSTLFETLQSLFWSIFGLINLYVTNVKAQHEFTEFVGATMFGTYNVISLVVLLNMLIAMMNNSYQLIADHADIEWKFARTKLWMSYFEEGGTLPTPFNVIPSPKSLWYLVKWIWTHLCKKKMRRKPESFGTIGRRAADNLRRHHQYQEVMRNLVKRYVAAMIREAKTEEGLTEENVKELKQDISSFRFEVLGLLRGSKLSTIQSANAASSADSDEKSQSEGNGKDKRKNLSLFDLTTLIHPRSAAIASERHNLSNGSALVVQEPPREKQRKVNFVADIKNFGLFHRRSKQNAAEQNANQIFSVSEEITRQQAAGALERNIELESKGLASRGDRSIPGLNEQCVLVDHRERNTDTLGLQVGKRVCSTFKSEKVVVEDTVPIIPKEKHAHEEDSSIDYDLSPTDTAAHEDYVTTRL", "assay": "mouse TRPC4 channel activators, dose response, cell-based, HEK293 TRPC4/mu-opioid, Fluo-4 calcium (AID 434937)", "type": "functional"}, "[16]": {"biological_target": "T6, Carboxy-terminal domain RNA polymerase II polypeptide A small phosphatase 1 (Homo sapiens, UniProt Q9GZU7)", "T6 sequence (Q9GZU7 whole entry)": "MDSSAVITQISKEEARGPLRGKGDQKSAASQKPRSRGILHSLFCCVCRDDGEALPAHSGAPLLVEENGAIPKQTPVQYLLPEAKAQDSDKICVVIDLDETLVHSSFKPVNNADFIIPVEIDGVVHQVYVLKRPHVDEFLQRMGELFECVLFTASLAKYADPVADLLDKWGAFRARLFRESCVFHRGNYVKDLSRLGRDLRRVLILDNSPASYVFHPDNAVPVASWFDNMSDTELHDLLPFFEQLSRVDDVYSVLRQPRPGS", "assay": "inhibitors of CTDSP1, concentration-response testing, biochemical assay, absorbance-based, actives from ultra-high-throughput screening (AID 540297)", "type": "functional"}}, "note": "Active and inactive are the calls of the source."}
{"smiles": "CCOc1ccc(C(C)C)cc1S(=O)(=O)Nc1cccnc1", "values": [{"measurement": "IC50", "setting": "[1]", "result": "> 100 µM (not active)"}, {"measurement": "IC50", "setting": "[2]", "result": "3.52 µM (active)"}]}
{"smiles": "Fc1ccc(COc2cccc(-c3nnc(S)o3)c2)cc1", "values": [{"measurement": "EC50", "setting": "[3]", "result": "9.44 µM (active)"}, {"measurement": "EC50", "setting": "[4]", "result": "> 79.4 µM (not active)"}, {"measurement": "EC50", "setting": "[5]", "result": "8.05 µM (active)"}]}
{"smiles": "O=S(=O)(c1ccc(=S)[nH]c1)N1CCOCC1", "values": [{"measurement": "IC50", "setting": "[6]", "result": "> 100 µM (inactive)"}, {"measurement": "IC50", "setting": "[7]", "result": "12.6 µM (active)"}, {"measurement": "IC50", "setting": "[8]", "result": "> 66 µM (inactive)"}, {"measurement": "IC50", "setting": "[9]", "result": "> 66 µM (inactive)"}]}
{"smiles": "O=C(Nc1ccc(NS(=O)(=O)c2ccccc2)cc1)c1cccnc1", "values": [{"measurement": "AC50", "setting": "[10]", "result": "5.75 µM (active)"}]}
{"smiles": "CCOC(=O)C1CCCN(C(=O)c2cc(-c3ccco3)nc3ccccc23)C1", "note": "(stereo not given)", "values": [{"measurement": "IC50", "setting": "[11]", "result": "6.42 µM (active)"}]}
{"smiles": "O=C(Cc1cccs1)NCCSc1c(-c2ccc(Cl)cc2)[nH]c2ccccc12", "values": [{"measurement": "EC50", "setting": "[3]", "result": "12.3 µM (inactive)"}, {"measurement": "EC50", "setting": "[4]", "result": "> 2.94 µM (active)"}, {"measurement": "EC50", "setting": "[5]", "result": "15.6 µM (not active)"}]}
{"smiles": "O=C1CCCc2c1cc(C(=O)NCCCN1CCOCC1)c(=O)n2-c1ccc(Cl)cc1", "values": [{"measurement": "AC50", "setting": "[10]", "result": "10.1 µM (active)"}]}
{"smiles": "Sc1[nH]cnc2c3ccccc3nc1-2", "values": [{"measurement": "IC50", "setting": "[6]", "result": "> 100 µM (inactive)"}, {"measurement": "IC50", "setting": "[12]", "result": "> 20 µM (inactive)"}, {"measurement": "IC50", "setting": "[7]", "result": "3.65 µM (active)"}, {"measurement": "IC50", "setting": "[13]", "result": "1.5 µM (active)"}, {"measurement": "IC50", "setting": "[14]", "result": "> 138 µM (inactive)"}]}
{"smiles": "CC(C)c1ccc(NC(=S)N(C)CCc2ccccn2)cc1", "values": [{"measurement": "EC50", "setting": "[15]", "result": "5.96 µM (active)"}]}
{"smiles": "Fc1ccc(C(c2nnnn2Cc2cccs2)N2CCN(C3CCCCC3)CC2)cc1", "note": "(stereo not given)", "values": [{"measurement": "EC50", "setting": "[15]", "result": "1.19 µM (active)"}]}
{"smiles": "CCOC(=O)C1CCN(C(=O)Nc2ccc3snnc3c2)CC1", "values": [{"measurement": "AC50", "setting": "[10]", "result": "0.85 µM (active)"}]}
{"smiles": "CCCCN(CC)CCNC(=O)c1cc2c(C)nc3ccccc3c2o1", "values": [{"measurement": "EC50", "setting": "[15]", "result": "0.944 µM (active)"}]}
{"smiles": "c1cncc(-c2nnn[nH]2)c1", "values": [{"measurement": "IC50", "setting": "[1]", "result": "> 100 µM (not active)"}, {"measurement": "IC50", "setting": "[2]", "result": "> 100 µM (inactive)"}]}
{"smiles": "COC(=O)c1sccc1-c1ccc(/C=N/OC(=O)c2ccccc2)o1", "values": [{"measurement": "EC50", "setting": "[3]", "result": "12.2 µM (inactive)"}, {"measurement": "EC50", "setting": "[4]", "result": "> 79.4 µM (not active)"}, {"measurement": "EC50", "setting": "[5]", "result": "12.7 µM (not active)"}]}
{"smiles": "COc1ccc(/C(C)=N/NC(=O)CNC(=O)/C=C\\c2ccco2)cc1", "values": [{"measurement": "IC50", "setting": "[16]", "result": "6.67 µM (active)"}]}
